Data as given in PubChem BioAssay AID1963962 (Molecular Pharmacology Branch, DTP, NCI, 2024).

System: 967376-340-R-J2-PDC multicell spheroid viability
Experiment: Anticancer human tumor 967376-340-R-J2-PDC patient-derived colon adenocarcinoma cell line growth inhibition [PI3K]
Settings: for IC50: curve of first compound; for viability, T/C: stronger effect = lower value
Procedure, shortened: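 Three cell types, namely tumor cells, endothelial cells and mesenchymal stem cells, formed each spheroid. Combinations with four PI3K inhibitors were screened at clinically achievable concentrations decreasing by half-log, and spheroid viability was recorded.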

[1] = second compound 0.0316 µM, first compound 0.0316 µM
[2] = second compound 0.0316 µM, first compound 0.1 µM
[3] = second compound 0.0316 µM, first compound 0.316 µM
[4] = second compound 0.0316 µM, first compound 1 µM
[5] = second compound 0.1 µM, first compound 0.0316 µM
[6] = second compound 0.1 µM, first compound 0.1 µM
[7] = second compound 0.1 µM, first compound 0.316 µM
[8] = second compound 0.1 µM, first compound 1 µM
[9] = second compound 0.316 µM, first compound 0.0316 µM
[10] = second compound 0.316 µM, first compound 0.1 µM
[11] = second compound 0.316 µM, first compound 0.316 µM
[12] = second compound 0.316 µM, first compound 1 µM
[13] = second compound 1 µM, first compound 0.0316 µM
[14] = second compound 1 µM, first compound 0.1 µM
[15] = second compound 1 µM, first compound 0.316 µM
[16] = second compound 1 µM, first compound 1 µM
[17] = second compound 3.16 µM, first compound 0.0316 µM
[18] = second compound 3.16 µM, first compound 0.1 µM
[19] = second compound 3.16 µM, first compound 0.316 µM
[20] = second compound 3.16 µM, first compound 1 µM
[21] = second compound 10 µM, first compound 0.0316 µM
[22] = second compound 10 µM, first compound 0.1 µM
[23] = second compound 10 µM, first compound 0.316 µM
[24] = second compound 10 µM, first compound 1 µM
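Also: spheroids exposed to agents for 7 days before read-out.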
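For viability, T/C in this document: luminescence used as surrogate of cell viability.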

For `CC(C)NCC(C(=O)N1CCN(c2ncnc3c2C(C)CC3O)CC1)c1ccc(Cl)cc1` (centres undefined) + Cc1nc(NC(=O)N2CCCC2C(N)=O)sc1-c1ccnc(C(C)(C)C(F)(F)F)c1, the IC50 (second compound 0.0316 µM) was over 10 µM, the IC50 (second compound 0.1 µM) was over 10 µM and the IC50 (second compound 0.316 µM) was over 10 µM. The IC50 (second compound 1 µM) was over 10 µM, the IC50 (second compound 3.16 µM) was over 10 µM and the IC50 (second compound 10 µM) was over 10 µM. It also gave a viability, T/C [1] of 118%, a viability, T/C [2] of 100% and a viability, T/C [3] of 115%. The viability, T/C [4] was 80.5%, the viability, T/C (second compound 0.0316 µM, first compound 3.16 µM) was 77.8% and the viability, T/C (second compound 0.0316 µM, first compound 10 µM) was 80.8%. It also gave a viability, T/C [5] of 96.4%, a viability, T/C [6] of 82.3% and a viability, T/C [7] of 85.1%. For the same molecule, the viability, T/C [8] was 70.3%, the viability, T/C (second compound 0.1 µM, first compound 3.16 µM) was 68.4% and the viability, T/C (second compound 0.1 µM, first compound 10 µM) was 87%. For the same molecule, the viability, T/C [9] was 88.6%, the viability, T/C [10] was 78.6% and the viability, T/C [11] was 65.5%. It also gave a viability, T/C [12] of 81.1%, a viability, T/C (second compound 0.316 µM, first compound 3.16 µM) of 84% and a viability, T/C (second compound 0.316 µM, first compound 10 µM) of 70%. It also gave a viability, T/C [13] of 62.3%, a viability, T/C [14] of 64.2% and a viability, T/C [15] of 73%. It also gave a viability, T/C [16] of 78.4%, a viability, T/C (second compound 1 µM, first compound 3.16 µM) of 72.3% and a viability, T/C (second compound 1 µM, first compound 10 µM) of 63.5%. The viability, T/C [17] was 67.1%, the viability, T/C [18] was 68% and the viability, T/C [19] was 56.8%. The viability, T/C [20] was 50.7%, the viability, T/C (second compound 3.16 µM, first compound 3.16 µM) was 62.4% and the viability, T/C (second compound 3.16 µM, first compound 10 µM) was 57.4%. For the same molecule, the viability, T/C [21] was 56%, the viability, T/C [22] was 54.8% and the viability, T/C [23] was 52.4%. It also gave a viability, T/C [24] of 49.1%, a viability, T/C (second compound 10 µM, first compound 3.16 µM) of 55.6% and a viability, T/C (second compound 10 µM, first compound 10 µM) of 50.5%.
For `CCN1CCN(Cc2ccc(Nc3ncc(F)c(-c4cc(F)c5nc(C)n(C(C)C)c5c4)n3)nc2)CC1` + Cc1nc(NC(=O)N2CCCC2C(N)=O)sc1-c1ccnc(C(C)(C)C(F)(F)F)c1, the IC50 (second compound 0.0316 µM) was over 1 µM, the IC50 (second compound 0.1 µM) was over 1 µM and the IC50 (second compound 0.316 µM) was over 1 µM. The IC50 (second compound 1 µM) was 0.162 µM, the IC50 (second compound 3.16 µM) was 0.0774 µM and the IC50 (second compound 10 µM) was under 0.00316 µM. It also gave a viability, T/C (second compound 0.0316 µM, first compound 0.00316 µM) of 107%, a viability, T/C (second compound 0.0316 µM, first compound 0.01 µM) of 64.6% and a viability, T/C [1] of 90.9%. It also gave a viability, T/C [2] of 77%, a viability, T/C [3] of 77.8% and a viability, T/C [4] of 64.7%. It also gave a viability, T/C (second compound 0.1 µM, first compound 0.00316 µM) of 109%, a viability, T/C (second compound 0.1 µM, first compound 0.01 µM) of 72.5% and a viability, T/C [5] of 90.5%. The viability, T/C [6] was 67.4%, the viability, T/C [7] was 54.3% and the viability, T/C [8] was 58.9%. It also gave a viability, T/C (second compound 0.316 µM, first compound 0.00316 µM) of 75.8%, a viability, T/C (second compound 0.316 µM, first compound 0.01 µM) of 82.1% and a viability, T/C [9] of 64.2%. For the same molecule, the viability, T/C [10] was 58.4%, the viability, T/C [11] was 60.8% and the viability, T/C [12] was 57.4%. For the same molecule, the viability, T/C (second compound 1 µM, first compound 0.00316 µM) was 56%, the viability, T/C (second compound 1 µM, first compound 0.01 µM) was 72% and the viability, T/C [13] was 58.4%. The viability, T/C [14] was 46.1%, the viability, T/C [15] was 49.4% and the viability, T/C [16] was 32.8%. For the same molecule, the viability, T/C (second compound 3.16 µM, first compound 0.00316 µM) was 62.3%, the viability, T/C (second compound 3.16 µM, first compound 0.01 µM) was 78.5% and the viability, T/C [17] was 59%. It also gave a viability, T/C [18] of 49%, a viability, T/C [19] of 44.1% and a viability, T/C [20] of 41.5%. It also gave a viability, T/C (second compound 10 µM, first compound 0.00316 µM) of 47.1%, a viability, T/C (second compound 10 µM, first compound 0.01 µM) of 49% and a viability, T/C [21] of 45.4%. The viability, T/C [22] was 37%, the viability, T/C [23] was 40.3% and the viability, T/C [24] was 27.1%.
